We go through six molecules from ChEMBL document CHEMBL1151696 (Bioorg Med Chem, 2008).

Active and inactive are the calls of the source. No cut-off for these calls is given here. Where only a bound is given, the exact number is not on record here.

The target in assay [1] is Glutamate NMDA receptor. The assay is described as follows: Antagonist activity at NMDA receptor in cerebellar granule neurons assessed as inhibition of NMDA-induced increase in intracellular calcium concentration by fluorometric assay. It counts as functional, cell-based. In general terms: Calcium flux is commonly read through the fluorescence of an indicator in the cells.

The species entered for assay [2] is Rattus norvegicus. Briefly: Inhibition of [3H]dopamine uptake in Wistar rat striatum synaptosomes at 100 uM by scintillation spectrometry. Further details: scale not given: the % may be the effect or the level left. It counts as functional, subcellular.
The test system of assay [3] is Mammalian orthoreovirus 1. It counts as functional, organism-based.
In assay [4] the test system is Human respirovirus 3. Type of assay: functional, organism-based.
For assay [5], the system named is Human alphaherpesvirus 2. Type of assay: functional, organism-based.
Assay [6] deals with Glutamate NMDA receptor. The assay is described as follows: Antagonist activity at NMDA receptor in cerebellar granule neurons assessed as inhibition of glutamate-induced increase in intracellular calcium concentration by fluorometric assay. It counts as functional, cell-based.
Assay [7] deals with Coxsackievirus B4. Type of assay: functional, organism-based.
The subject of assay [8] is Feline coronavirus. Type of assay: functional, organism-based.
For assay [9], the system named is Vesicular stomatitis virus. It counts as functional, organism-based.
The subject of assay [10] is Human alphaherpesvirus 1. It counts as functional, organism-based.
Assay [11] concerns Respiratory syncytial virus. Type of assay: functional, organism-based.
Assay [12] has as its system Punta Toro virus. It counts as functional, organism-based.
Assay [13] concerns Sindbis virus. It counts as functional, organism-based.

Consider `CN(C)CC12CC3CC(CC1C3)C2`, for which the IC50 in assay [1] and in assay [6] was more than 200 µM each time. The Activity in assay [2] is 62.5%. Besides, the result in [3], in [4], in assay [5], in [7], in assay [8] and in [9] was inactive. Also, the outcome in [10], in assay [11], in assay [12] and in assay [13] was inactive.
In the case of `CN(Cc1ccccc1)C12CC3CC(CC1C3)C2`, the values for the IC50 in assay [1] and in assay [6] were 36 µM and more than 500 µM, respectively. The molecule also registered an Activity in [2] of 47.2%. The result in assay [3], in [4], in [5], in assay [7], in assay [8] and in assay [9] was inactive. The outcome in assay [10], in [11], in assay [12] and in assay [13] was inactive.
For the molecule `COc1ccccc1CNC12CC3CC(CC1C3)C2`, the IC50 (commonly the concentration that gives 50% inhibition) is 92 µM in [1] and more than 500 µM in [6]. In [2], this molecule gave an Activity of 58.3%. The result in [3], in [4], in [5], in assay [7], in [8] and in [9] was inactive. Moreover, the result in [10], in [11], in assay [12] and in [13] was inactive.
Turning to `c1ccc(CNCC23CC4CC(CC2C4)C3)cc1`, the figures for the IC50 in assay [1] and in assay [6] were 138 µM and more than 500 µM, respectively. The molecule further came in with an Activity in assay [2] of 57.9%. Besides, the result in assay [3], in assay [4], in assay [5], in assay [7], in [8] and in assay [9] was inactive. The result in assay [10], in [11], in assay [12] and in [13] was inactive.
In the case of `CC12CC3CC1(C)CC3(N)C2`, the figures for the IC50 in assay [1] and in assay [6] were 23 µM and 274 µM, respectively. The Activity in assay [2] stood at 54.8%. For the same molecule, the outcome in assay [3], in assay [4], in assay [5], in assay [7], in assay [8] and in assay [9] was inactive. Besides, the outcome in assay [10], in assay [11], in [12] and in assay [13] was inactive.
As to `CN(C)C12CC3CC(CC1C3)C2`, the half-maximal inhibitory concentration (IC50) in assay [1] is 173 µM; in assay [6] it was more than 500 µM. In assay [2], this molecule showed an Activity of 71.3%. The result in assay [3], in [4], in assay [5], in assay [7], in assay [8] and in [9] was inactive. The outcome in assay [10], in [11], in assay [12] and in assay [13] was inactive.
